Data from patent publication US20230219951A1, “PYRIDINE-PYRIMIDINE DERIVATIVE, PREPARATION METHOD THEREFOR AND PHARMACEUTICAL USE THEREOF” (Jiangsu Hengrui Pharmaceuticals Co., Ltd., priority 2020, published 2023).

How the values were obtained:
[1] = molecular target: T1, interaction between the KRAS protein subtype G12V and the SOS1 protein (Homo sapiens, UniProt Q07889); assay: Inhibition of the interaction between KRAS G12V and SOS1 protein (AlphaLISA/AlphaScreen); assay type: binding; settings: KRAS G12V + GST-TEV-SOS1(564-1049) + GDP
T1 construct: GST-TEV-SOS1(564-1049) (Viva Biotech, SOS1-191010); purchased SOS1: Viva Biotech; KRAS: Shanghai Panchao Biotechnology Co., Ltd. SOS1-191010
T1 sequence (Q07889 564-1049): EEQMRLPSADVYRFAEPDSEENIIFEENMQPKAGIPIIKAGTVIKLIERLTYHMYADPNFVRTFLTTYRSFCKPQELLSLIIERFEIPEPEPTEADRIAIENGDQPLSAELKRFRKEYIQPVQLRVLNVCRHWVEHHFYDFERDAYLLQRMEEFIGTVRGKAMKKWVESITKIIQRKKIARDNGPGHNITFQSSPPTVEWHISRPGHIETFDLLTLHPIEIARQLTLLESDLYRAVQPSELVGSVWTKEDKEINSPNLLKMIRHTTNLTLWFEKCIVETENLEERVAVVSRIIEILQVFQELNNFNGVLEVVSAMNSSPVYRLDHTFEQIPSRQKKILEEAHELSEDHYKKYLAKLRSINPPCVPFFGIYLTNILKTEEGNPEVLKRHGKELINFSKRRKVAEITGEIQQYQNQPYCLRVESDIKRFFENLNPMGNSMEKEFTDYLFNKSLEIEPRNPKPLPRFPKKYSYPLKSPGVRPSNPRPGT
Protocol: (§1) Test Example 1: Inhibitory Ability of Compounds of the Present Disclosure to the Interaction Between the KRAS Protein Subtype G12D or G12V and the SOS1 Protein. The inhibitory ability of the compounds of the present disclosure to the interaction between the KRAS protein subtype G12D or G12V and the SOS1 protein was determined by the following method. The experimental method was briefly described as follows:
(§2) 1. The experimental buffer was prepared prior to the start of the experiment: 1×PBS+0.1% BSA+0.05% tween 20.
(§3) 2. KRAS G12D and KRAS-G12V proteins were labeled with biotin using the biotin labeling kit.
(§4) 1. Firstly, the biotin-labeled KRAS G12D or KRAS G12V protein was mixed and incubated with the SOS1 protein and GDP for later use.
(§5) 2. AlphaLISA glutathione acceptor beads and AlphaScreen streptavidin donor beads were mixed at a ratio of 1:1 to make the concentration of 40 μg/mL for later use.
(§6) 3. The compound was formulated with the experimental buffer to obtain 10 concentration points by 5-fold gradient dilution from an initial concentration of 40 μM.
(§7) 4. In the 384-well microplate, 10 μL of a mixture of KRAS G12D or KRAS G12V protein and SOS1 and GDP and 5 μL of the diluted compound were added to each well and incubated at room temperature for 30 min away from the light.
(§8) 5. Then, 5 μL of a mixture of AlphaLISA glutathione acceptor beads and AlphaScreen streptavidin donor beads was added to each well and incubated at room temperature for 60 min away from the light.
(§9) 6. The fluorescence values were read on a multi-mode microplate reader.
(§10) 7. IC50 values of the compounds were calculated using Graphpad Prism.

[2] = test system: ERK phosphorylation of H358 cells; assay: Inhibition of ERK phosphorylation of H358 cells (HTRF pERK/total ERK); assay type: cell-based; settings: Homo sapiens, NCI-H358, 1 h incubation, pERK/total ERK ratio
Protocol: This experiment is intended to evaluate the inhibition effect of the compounds of the present disclosure on the KRAS target (containing the G12C mutation) according to IC50 by determining the inhibition effect of the compounds on ERK phosphorylation of the cells.
H358 cells (ATCC, CRL-5807) were cultured in RPMI1640 (Hyclone, SH30809.01) complete medium containing 10% fetal bovine serum. On the first day of the experiment, the H358 cells were seeded into a 96-well plate at a density of 25,000 cells/well with a complete medium to form 190 μL of cell suspension per well. The plate was incubated overnight in a cell incubator at 37° C. with 5% CO2. The next day, 10 μL of test compound diluted in a gradient prepared with the complete medium was added to each well. The final concentrations of the compound were 9 concentration points obtained by 5-fold gradient dilution from 10 μM. A blank control containing 0.1% DMSO was set. The plate was incubated in a cell incubator at 37° C. with 5% CO2 for 1 h. 1 h later, the 96-well cell culture plate was taken out, the medium was removed by pipetting, 200 μL PBS (Shanghai BasalMedia Technologies Co., Ltd., B320) was added to each well, and the cells were washed once. PBS was removed by pipetting, 50 μL of lysis buffer (Cisbio, 64KL1FDF) containing a blocking reagent (Cisbio, 64KB1AAC) was added to each well, and the plate was shaken on a shaker at room temperature for 40 min for lysis. After lysis, the lysate was pipetted and mixed well, 16 μL of lysate was transferred from each well to each of two HTRF 96-well assay plates (Cisbio, 66PL96100), and then 4 μL of premixed phospho-ERK1/2 antibody solution (Cisbio, 64AERPEG) or 4 μL of premixed total-ERK1/2 antibody solution (Cisbio, 64NRKPEG) was added to each of the two plates. The microplate was sealed with a sealing membrane, centrifuged for 1 min in a microplate centrifuge, and incubated overnight at room temperature away from the light. On the third day, the fluorescence values at an excitation wavelength of 337 nm and at emission wavelengths of 665 nm and 620 nm were read using a PHERAstar multi-mode microplate reader (BMG Labtech, S/N 471-0361).
IC50 values for inhibitory activity of the compounds were calculated using Graphpad Prism software based on compound concentrations and pERK/total ERK ratio.

[3] = test system: H358 cells; assay: Inhibition of proliferation of H358 cells (CellTiter-Glo 3D); assay type: cell-based; settings: Homo sapiens, NCI-H358, low adsorption plate, 120 h
Protocol: This example is intended to evaluate the inhibition effect of the compounds of the present disclosure on the KRAS target (containing the G12C mutation) by testing the inhibition effect of the compounds of the present disclosure on the proliferation of H358 cells.
H358 cells (ATCC, CRL-5807) were cultured in a complete medium, namely RPMI1640 medium (Hyclone, SH30809.01) containing 10% fetal bovine serum (Corning, 35-076-CV). On the first day of the experiment, the H358 cells were seeded into a 96-well low adsorption plate (Coming, CLS7007-24EA) at a density of 1500 cells/well with a complete medium to form 90 μL of cell suspension per well. The plate was centrifuged at 2000 rpm for 5 min at room temperature and then incubated overnight in a cell incubator at 37° C. with 5% CO2. The next day, 10 μL of test compound diluted in a gradient prepared with the complete medium was added to each well. The final concentrations of the compound were 9 concentration points obtained by 5-fold gradient dilution from 10 μM. A blank control containing 0.1% DMSO was set. The plate was incubated in a cell incubator at 37° C. with 5% CO2 for 120 h. On the seventh day, the 96-well cell culture plate was taken out and 50 μL of CellTiter-Glo® 3D reagent (Promega, G9682) was added into each well. The plate was shaken at room temperature for 25 min, pipetted and mixed well, from which 50 μL of the mixture was transferred into a white impermeable 96-well plate (PE, 6005290). The luminescence signal values were read using a multi-mode microplate reader (PerkinElmer, VICTOR 3).
IC50 values for the inhibitory activity of the compounds were calculated using Graphpad Prism software.

[4] = molecular target: T2, interaction between the KRAS protein subtype G12D and the SOS1 protein (Homo sapiens, UniProt Q07889); assay: Inhibition of the interaction between KRAS G12D and SOS1 protein (AlphaLISA/AlphaScreen); assay type: binding; settings: KRAS G12D + GST-TEV-SOS1(564-1049) + GDP
T2 construct: GST-TEV-SOS1(564-1049) (Viva Biotech, SOS1-191010); purchased SOS1: Viva Biotech; KRAS: Shanghai Panchao Biotechnology Co., Ltd. SOS1-191010
T2 sequence (Q07889 564-1049): T1 sequence (Q07889 564-1049)
Protocol: as §1, §2, §3, §4, §5, §6, §7, §8, §9, §10

SMILES	IC50 [1] [nM]	IC50 [3] [nM]	IC50 [4] [nM]	IC50 [2] [nM]
Cc1nc(N[C@H](C)c2cccc(C(F)F)c2F)c2cc(C3=CCOCC3)c(=O)[nH]c2n1 [Example 5, (R)-4-((1-(3-(difluoromethyl)-2-fluorophenyl)ethyl)amino)-6-(3,6-dihydro-2H-pyran-4-yl)-2-methylpyrido[2,3-d]pyrimidin-7(8H)-one]	79	461	42	
Cc1nc(N[C@H](C)c2cccc(C(F)(F)CO)c2F)c2cc(OC3CCOC3)c(=O)[nH]c2n1 (stereo partly drawn) [Example 9, 4-(((R)-1-(3-(1,1-difluoro-2-hydroxyethyl)-2-fluorophenyl)ethyl)amino)-2-methyl-6-(((R)-tetrahydrofuran-3-yl)oxy)pyrido[2,3-d]pyrimidin-7(8B)-one]	41	106	8	
Cc1nc(N[C@H](C)c2cccc(C(F)F)c2F)c2cc(C3(O)CCOCC3)c(=O)[nH]c2n1 [Example 19, (R)-4-((1-(3-(difluoromethyl)-2-fluorophenyl)ethyl)amino)-6-(4-hydroxytetrahydro-2H-pyran-4-yl)-2-methylpyrido[2,3-d]pyrimidin-7(8H)-one]	154		47	
Cc1nc(N[C@H](C)c2cc(N)cc(C(F)(F)F)c2)c2cc(C3=CCOCC3)c(=O)[nH]c2n1 [Example 3, (R)-4-((1-(3-amino-5-(trifluoromethyl)phenyl)ethyl)amino)-6-(3,6-dihydro-2H-pyran-4-yl)-2-methylpyrido[2,3-d]pyrimidin-7(8H)-one]				55
Cc1nc(N[C@H](C)c2cccc(C(F)F)c2F)c2cc(C3(O)CCN(C(=O)CF)CC3)c(=O)[nH]c2n1 (racemic) [Example 22, rac-(R)-4-((1-(3-(difluoromethyl)-2-fluorophenyl)ethyl)amino)-6-(1-(2-fluoroacetyl)-4-hydroxypiperidin-4-yl)-2-methylpyrido[2,3-d]pyrimidin-7(8H)-one]	27		14	

Second part, led by results:

IC50 [1] [nM]	IC50 [3] [nM]	IC50 [4] [nM]	SMILES	IC50 [2] [nM]
136	97	39	Cc1nc(N[C@H](C)c2cccc(C(F)F)c2F)c2cc(N3CCOCC3)c(=O)[nH]c2n1 [Example 16, (R)-4-((1-(3-(difluoromethyl)-2-fluorophenyl)ethyl)amino)-2-methyl-6-morpholinopyrido[2,3-d]pyrimidin-7(8H)-one]	218
65	346	44	CC(=O)N1CC(Oc2cc3c(N[C@H](C)c4cccc(C(F)F)c4F)nc(C)nc3[nH]c2=O)C1 (racemic) [Example 26, rac-(R)-6-((1-acetylazetidin-3-yl)oxy)-4-((1-(3-(difluoromethyl)-2-fluorophenyl)ethyl)amino)-2-methylpyrido[2,3-d]pyrimidin-7(8H)-one]	
133		49	CC(=O)N1CC[C@H](Oc2cc3c(N[C@H](C)c4cccc(C(F)F)c4F)nc(C)nc3[nH]c2=O)C1 [Example 24, 6-(((S)-1-acetylpyrrolidin-3-yl)oxy)-4-(((R)-1-(3-(difluoromethyl)-2-fluorophenyl)ethyl)amino)-2-methylpyrido[2,3-d]pyrimidin-7(8H)-one]	
79	137	21.5	Cc1nc(N[C@H](C)c2cccc(C(F)F)c2F)c2cc(C3=CCC(C(=O)N(C)C)CC3)c(=O)[nH]c2n1 (stereo partly drawn) [Example 13, 4-(4-(((R)-1-(3-(difluoromethyl)-2-fluorophenyl)ethyl)amino)-2-methyl-7-oxo-7,8-dihydropyrido[2,3-d]pyrimidin-6-yl)-N,N-dimethylcyclohex-3-ene-1-carboxamide]	
89		10	Cc1nc(N[C@H](C)c2cccc(C(F)F)c2F)c2cc(OC3CCS(=O)(=O)CC3)c(=O)[nH]c2n1 [Example 23, (R)-4-((1-(3-(difluoromethyl)-2-fluorophenyl)ethyl)amino)-6-((1,1-dioxidotetrahydro-2H-thiopyran-4-yl)oxy)-2-methylpyrido[2,3-d]pyrimidin-7(8H)-one]	
101	545	91	CNC(=O)C1CCC(O)(c2cc3c(N[C@H](C)c4cccc(C(F)F)c4F)nc(C)nc3[nH]c2=O)CC1 (stereo partly drawn) [Example 29, (R)-4-(4-((1-(3-(difluoromethyl)-2-fluorophenyl)ethyl)amino)-2-methyl-7-oxo-7,8-dihydropyrido[2,3-d]pyrimidin-6-yl)-4-hydroxy-N-methylcyclohexane-1-carboxamide]	
80		34	Cc1nc(N[C@H](C)c2cccc(C(F)F)c2F)c2cc(O[C@H]3CCOC3)c(=O)[nH]c2n1 [Example 10, 4-(((R)-1-(3-(difluoromethyl)-2-fluorophenyl)ethyl)amino)-2-methyl-6-(((S)-tetrahydrofuran-3-yl)oxy)pyrido[2,3-d]pyrimidin-7(8H)-one]	
56	345	30	Cc1nc(N[C@H](C)c2cccc(C(F)F)c2F)c2cc(C3CCOCC3)c(=O)[nH]c2n1 [Example 6, (R)-4-((1-(3-(difluoromethyl)-2-fluorophenyl)ethyl)amino)-2-methyl-6-(tetrahydro-2H-pyran-4-yl)pyrido[2,3-d]pyrimidin-7(8H)-one]	
